Laboratory results reported in patent US11639353B2, “Cyclobutanes- and azetidine-containing mono and spirocyclic compounds as αV integrin inhibitors” (BRISTOL-MYERS SQUIBB COMPANY, priority 2016, dated 2023).
Structures can show the parent of a compound that is named as a salt.

Target: T1, human αVβ6 (Homo sapiens, UniProt P06756+P18564)
T1 construct: purchased R & D systems 3817-AV
Experiment: human αVβ6 HTRF binding assay
Conditions: alternatively SPA-based assay
Procedure: All binding assays used the HTRF (homogeneous time resolved fluorescence) technology from Cisbio International, therefore all assays are described as HTRF binding assays. The assay results for the Examples are listed above together with the characterization data. The HTRF binding assays are established for the following integrins: human αVβ6, human αVβ1, human αVβ3, human αVβ5, and human αVβ8. All assays used the following assay buffer: 20 mM Tris, pH 7.4, 1 mM MgCl2, 1 mM MnCl2, 0.01% Tween 20, and 0.01% BSA. Alternatively, a SPA-based assay was used for evaluation of receptor binding.
The following describes the components and a representative procedure for the human αVβ6 HTRF binding assay: Recombinant human αVβ6 Integrin (R & D systems, 3817-AV) was biotinylated. Biotinylated human αVβ6 Integrin was added to assay vessel at a final concentration of 1.25 nM. FITC-conjugated fibronectin (Cytoskeleton, FNR02) was then added at the final concentration of 5 nM. The mixture was centrifuged at 600 rpm for three minutes using Thermo Fisher Heraeus Multifuge X3 centrifuge and then incubated at RT for an hour. Streptavidin Terbium (Cisbio international 610STLB) was then added at the final concentration of 0.625 nM. The resulting mixture was centrifuged at 600 rpm for three minutes using Thermo Fisher Heraeus Multifuge X3 centrifuge and then incubated at room temperature overnight in dark before reading HTRF signals.
The SPA-based assay was carried out according to the protocol and procedures similar to the ones described in the following reference with appropriate modifications to agents and ligands which are readily understood by one skilled in the art: Pachter J A, Zhang R, Mayer-Ezell R., “Scintillation proximity assay to measure binding of soluble fibronectin to antibody-captured αVβ1 integrin” Anal Biochem. 1995 Sep. 1; 230(1):101-7.

T1 sequence (P06756 31-992 limits assumed): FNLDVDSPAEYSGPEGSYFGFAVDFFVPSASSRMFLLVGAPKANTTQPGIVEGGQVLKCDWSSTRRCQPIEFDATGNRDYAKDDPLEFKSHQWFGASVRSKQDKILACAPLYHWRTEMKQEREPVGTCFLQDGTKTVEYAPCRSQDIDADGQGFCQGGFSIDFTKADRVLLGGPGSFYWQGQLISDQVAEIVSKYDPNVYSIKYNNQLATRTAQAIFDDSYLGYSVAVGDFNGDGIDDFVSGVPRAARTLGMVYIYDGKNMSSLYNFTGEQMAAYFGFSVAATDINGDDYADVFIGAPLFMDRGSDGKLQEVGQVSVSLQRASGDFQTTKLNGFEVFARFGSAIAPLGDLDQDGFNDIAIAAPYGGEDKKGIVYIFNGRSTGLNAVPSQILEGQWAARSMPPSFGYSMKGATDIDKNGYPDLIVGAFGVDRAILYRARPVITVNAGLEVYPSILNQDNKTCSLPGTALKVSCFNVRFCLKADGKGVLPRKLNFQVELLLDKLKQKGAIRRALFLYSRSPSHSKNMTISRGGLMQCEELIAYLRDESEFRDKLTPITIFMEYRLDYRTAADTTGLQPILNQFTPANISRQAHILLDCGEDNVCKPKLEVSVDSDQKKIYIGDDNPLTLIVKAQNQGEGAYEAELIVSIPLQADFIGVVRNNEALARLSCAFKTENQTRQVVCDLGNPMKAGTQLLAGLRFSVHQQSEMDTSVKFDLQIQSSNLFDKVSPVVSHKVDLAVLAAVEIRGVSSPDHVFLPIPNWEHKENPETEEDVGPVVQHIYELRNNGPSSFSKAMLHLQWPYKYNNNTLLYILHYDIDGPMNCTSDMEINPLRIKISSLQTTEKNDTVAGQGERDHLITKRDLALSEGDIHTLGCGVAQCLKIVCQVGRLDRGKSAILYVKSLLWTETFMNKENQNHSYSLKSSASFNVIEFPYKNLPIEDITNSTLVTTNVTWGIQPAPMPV
T1 sequence (P18564 22-707 limits assumed): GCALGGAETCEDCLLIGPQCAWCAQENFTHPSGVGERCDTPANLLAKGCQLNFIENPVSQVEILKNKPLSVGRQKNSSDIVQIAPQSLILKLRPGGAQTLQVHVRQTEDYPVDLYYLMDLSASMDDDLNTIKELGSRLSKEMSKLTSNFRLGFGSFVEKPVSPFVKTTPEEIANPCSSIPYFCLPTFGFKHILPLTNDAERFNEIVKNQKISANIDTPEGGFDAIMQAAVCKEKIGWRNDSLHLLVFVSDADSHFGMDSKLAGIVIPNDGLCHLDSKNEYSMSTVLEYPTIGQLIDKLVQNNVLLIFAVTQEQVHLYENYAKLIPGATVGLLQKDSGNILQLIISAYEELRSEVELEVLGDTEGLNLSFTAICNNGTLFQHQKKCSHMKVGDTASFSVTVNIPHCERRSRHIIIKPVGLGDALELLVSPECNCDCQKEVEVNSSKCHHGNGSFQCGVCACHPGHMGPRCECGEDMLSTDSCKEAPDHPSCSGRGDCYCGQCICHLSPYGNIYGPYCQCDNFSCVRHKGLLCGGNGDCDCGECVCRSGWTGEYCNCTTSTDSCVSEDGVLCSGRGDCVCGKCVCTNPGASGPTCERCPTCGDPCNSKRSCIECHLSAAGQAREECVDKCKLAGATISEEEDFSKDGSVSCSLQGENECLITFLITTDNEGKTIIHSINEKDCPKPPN

SMILES | IC50 [nM]
COc1ccc([C@H](CC(=O)O)NC(=O)C2CC3(CC(CCc4ccc5c(n4)NCCC5)C3)C2)cn1 (mixture of isomers) [Example 50] | 110
O=C(N[C@@H](CNC(=O)[C@H]1C[C@@H](Cc2ccc3c(n2)NCCC3)C1)C(=O)O)OCc1cccc(F)c1 (relative stereo) [Example 197] | 197
COc1ccc([C@H](CC(=O)O)C2(F)CN(C(=O)CCCc3ccc4c(n3)NCCC4)C2)cn1 (single isomer, unassigned) [Example 17] | 29
COc1ccc([C@@H](CC(=O)O)C2(F)CN(C(=O)CCCc3ccc4c(n3)NCCC4)C2)cn1 (single isomer, unassigned) [Example 18] | 170
COc1ccc([C@H](CC(=O)O)N2CC(C)(CCCCc3ccc4c(n3)NCCC4)C2=O)cn1 (single isomer, unassigned) [Example 177] | 448
COc1ccc([C@H](CC(=O)O)N2CC(C)(CCCCc3ccc4c(n3)NCCC4)C2=O)cn1 (single isomer, unassigned) [Example 178] | 102
COc1ccc([C@H](CC(=O)O)N2CC(CCCc3ccc4c(n3)NCCC4)C2=O)cc1F (single isomer, unassigned) [Example 179] | 55
COc1ccc([C@H](CC(=O)O)N2CC(CCCc3ccc4c(n3)NCCC4)C2=O)cc1F (single isomer, unassigned) [Example 180] | 17
COc1ccc([C@H](CC(=O)O)N2CC(CCCc3ccc4c(n3)NCCC4)C2=O)cn1 (single isomer, unassigned) [Example 181] | 25
COc1ccc([C@H](CC(=O)O)N2CC(CCCc3ccc4c(n3)NCCC4)C2=O)cn1 (single isomer, unassigned) [Example 182] | 5.7
COc1ccc([C@H](CC(=O)O)N2CC(c3ccc(-c4ccc5c(n4)NCCC5)cc3)C2=O)cn1 (single isomer, unassigned) [Example 183] | 2
COc1ccc([C@H](CC(=O)O)N2CC(c3ccc(-c4ccc5c(n4)NCCC5)cc3)C2=O)cn1 (single isomer, unassigned) [Example 184] | 4
Cc1cc(C)c(S(=O)(=O)N[C@@H](CN2CC(CCCc3ccc4c(n3)NCCC4)C2=O)C(=O)O)c(C)c1 (single isomer, unassigned) [Example 185] | 18
Cc1cc(C)c(S(=O)(=O)N[C@@H](CN2CC(CCCc3ccc4c(n3)NCCC4)C2=O)C(=O)O)c(C)c1 (single isomer, unassigned) [Example 186] | 0.61
O=C(O)[C@H](CN1CC(CCCc2ccc3c(n2)NCCC3)C1=O)NS(=O)(=O)c1ccc(F)cc1 (single isomer, unassigned) [Example 187] | 24
O=C(O)[C@H](CN1CC(CCCc2ccc3c(n2)NCCC3)C1=O)NS(=O)(=O)c1ccc(F)cc1 (single isomer, unassigned) [Example 188] | 3.34
COc1ccc(C(NC(=O)C2CC(CCc3ccc4c(n3)NCCC4)C2)C(C)(C)C(=O)O)cn1 (single isomer, unassigned) [Example 189, 3-(6-methoxypyridin-3-yl)-2,2-dimethyl-3-(3-(2-(5,6,7,8-tetrahydro-1,8-naphthyridin-2-yl)ethyl)cyclobutane-1-carboxamido)propanoic acid] | 5000

SMILES | IC50 [nM]
COc1ccc(C(NC(=O)C2CC(CCc3ccc4c(n3)NCCC4)C2)C(C)(C)C(=O)O)cn1 (single isomer, unassigned) [Example 190, 3-(6-methoxypyridin-3-yl)-2,2-dimethyl-3-(3-(2-(5,6,7,8-tetrahydro-1,8-naphthyridin-2-yl)ethyl)cyclobutane-1-carboxamido)propanoic acid] | 3300
O=C(O)CC(NC(=O)[C@H]1C[C@H](CCc2ccc3c(n2)NCCC3)C1)c1cnc(C(F)(F)F)nc1 (single isomer, unassigned) [Example 193, 3-(trans-3-(2-(5,6,7,8-Tetrahydro-1,8-naphthyridin-2-yl)ethyl)cyclobutane-1-carboxamido)-3-(2-(trifluoromethyl)pyrimidin-5-yl)propanoic acid] | 5.7
O=C(O)CC(NC(=O)[C@H]1C[C@H](CCc2ccc3c(n2)NCCC3)C1)c1cnc(C(F)(F)F)nc1 (single isomer, unassigned) [Example 194, 3-(trans-3-(2-(5,6,7,8-Tetrahydro-1,8-naphthyridin-2-yl)ethyl)cyclobutane-1-carboxamido)-3-(2-(trifluoromethyl)pyrimidin-5-yl)propanoic acid] | 21
COc1ccc(C(CC(=O)O)C2CC(CCCCc3ccc4c(n3)NCCC4)C2)cn1 (single isomer, unassigned; diastereomer a) [Example 139, 3-(6-Methoxypyridin-3-yl)-3-(3-(4-(5,6,7,8-tetrahydro-1,8-naphthyridin-2-yl)butyl)cyclobutyl)propanoic acid (Diastereomer A)] | 26
COc1ccc(C(CC(=O)O)C2CC(CCCCc3ccc4c(n3)NCCC4)C2)cn1 (single isomer, unassigned; diastereomer b) [Example 140, 3-(6-Methoxypyridin-3-yl)-3-(3-(4-(5,6,7,8-tetrahydro-1,8-naphthyridin-2-yl)butyl)cyclobutyl)propanoic acid (Diastereomer B)] | 7.7
O=C(O)C[C@H](NC(=O)C1CC2(C1)CN(C(=O)CCc1ccc3c(n1)NCCC3)C2)c1cc(Cl)cc(Cl)c1 [Example 1, (S)-3-(3,5-Dichlorophenyl)-3-(2-(3-(5,6,7,8-tetrahydro-1,8-naphthyridin-2-yl)propanoyl)-2-azaspiro[3.3]heptane-6-carboxamido)propanoic acid, TFA] | 420
COc1ccc([C@H](CC(=O)O)NC(=O)C2CC3(C2)CN(CCc2ccc4c(n2)NCCC4)C3)cn1 [Example 2, (S)-3-(6-Methoxypyridin-3-yl)-3-(2-(2-(5,6,7,8-tetrahydro-1,8-naphthyridin-2-yl)ethyl)-2-azaspiro[3.3]heptane-6-carboxamido)propanoic acid, 3TFA] | 13
O=C(O)C[C@H](NC(=O)C1CC2(C1)CN(CCCc1ccc3c(n1)NCCC3)C2)c1cc(Cl)cc(Cl)c1 [Example 3, (S)-3-(3,5-Dichlorophenyl)-3-(2-(3-(5,6,7,8-tetrahydro-1,8-naphthyridin-2-yl)propyl)-2-azaspiro[3.3]heptane-6-carboxamido)propanoic acid] | 21
Cc1nc2c(cc1CCN1CC3(CC(C(=O)N[C@@H](CC(=O)O)c4cc(Cl)cc(Cl)c4)C3)C1)CCCN2 [Example 4, (S)-3-(3,5-Dichlorophenyl)-3-(2-(2-(2-methyl-5,6,7,8-tetrahydro-1,8-naphthyridin-3-yl)ethyl)-2-azaspiro[3.3]heptane-6-carboxamido)propanoic acid] | 25
Cc1cc(C)c(S(=O)(=O)N[C@@H](CNC(=O)C2CC3(CC(CCc4ccc5c(n4)NCCC5)C3)C2)C(=O)O)c(C)c1 (stereo partly drawn) [Example 5, (S)-3-(6-(2-(5,6,7,8-Tetrahydro-1,8-naphthyridin-2-yl)ethyl)spiro[3.3]heptane-2-carboxamido)-2-((2,4,6-trimethylphenyl)sulfonamido)propanoic acid] | 1.3
O=C(N[C@@H](CC(=O)N1CC(CCc2ccc3c(n2)NCCC3)C1)C(=O)O)OCc1ccccc1 [Example 7, (S)-2-(((Benzyloxy)carbonyl)amino)-4-oxo-4-(3-(2-(5,6,7,8-tetrahydro-1,8-naphthyridin-2-yl)ethyl)azetidin-1-yl)butanoic acid] | 64
O=C(N[C@@H](CCN1CC2(CC(CCc3ccc4c(n3)NCCC4)C2)C1)C(=O)O)OCc1ccccc1 [Example 8, (S)-2-(((Benzyloxy)carbonyl)amino)-4-(6-(2-(5,6,7,8-tetrahydro-1,8-naphthyridin-2-yl)ethyl)-2-azaspiro[3.3]heptan-2-yl)butanoic acid] | 2
O=C(N[C@@H](COC1CN(CCCc2ccc3c(n2)NCCC3)C1)C(=O)O)OCc1ccccc1 [Example 10, N-((Benzyloxy)carbonyl)-O-(1-(3-(5,6,7,8-tetrahydro-1,8-naphthyridin-2-yl)propyl)azetidin-3-yl)-L-serine] | 0.8
COc1ccc([C@H](CC(=O)O)NC2CN(CCCc3ccc4c(n3)NCCC4)C2)cn1 [Example 11, (S)-3-(6-Methoxypyridin-3-yl)-3-((1-(3-(5,6,7,8-tetrahydro-1,8-naphthyridin-2-yl)propyl)azetidin-3-yl)amino)propanoic acid] | 0.5
COc1ccc([C@H](CC(=O)O)NC2CN(CCc3ccc4c(n3)NCCC4)C2)cn1 [Example 12, (S)-3-(6-Methoxypyridin-3-yl)-3-((1-(2-(5,6,7,8-tetrahydro-1,8-naphthyridin-2-yl)ethyl)azetidin-3-yl)amino)propanoic acid] | 3.6
Cc1cc(C)c(S(=O)(=O)N[C@@H](CNC(=O)C2CN(CCCc3ccc4c(n3)NCCC4)C2)C(=O)O)c(C)c1 [Example 14, (S)-3-(1-(3-(5,6,7,8-Tetrahydro-1,8-naphthyridin-2-yl)propyl)azetidine-3-carboxamido)-2-(2,4,6-trimethylphenylsulfonamido)propanoic acid] | 0.7
